Our source for the IC50 values is patent US10322191B2, “Targeted conjugates and particles and formulations thereof” (TARVEDA THERAPEUTICS, INC., priority 2014, dated 2019).

The test system of this test is NCI-H524 (ATCC) human lung cancer cells. The test is classed as cell-based. The procedure:
Conjugates were assessed in an in vitro assay evaluating inhibition of cell proliferation. NCI-H524 (ATCC) human lung cancer cells were plated in 96 well, V-bottomed plates (Costar) at a concentration of 5,000 cells/well and 24 hours later were treated with compound for 2 hours and further incubated 70 hours. Compound starting dose was 20 μM and three-fold serial dilutions were done for a total of ten points. After 2 hours of treatment, cells were spun down, the drug containing media was removed, and fresh complete medium was added and used to resuspend the cells, which were spun again. After removal of the wash media, the cells were resuspended in complete medium, then transferred into white walled, flat bottomed 96 well plates. […] Proliferation was measured using CellTiter Glo reagent using the standard protocol (Promega) and a Glomax multi+detection system (Promega). Percent proliferation inhibition was calculated using the following formula: % inhibition=(control-treatment)/control*100. Control is defined as vehicle alone. IC50 curves were generated using the nonlinear regression analysis (four parameter) with GraphPad Prism 6.
Conjugates of the present invention were assessed in an in vitro assay evaluating inhibition of cell proliferation. NCI-H524 (ATCC) human lung cancer cells were plated in 96 well, V-bottomed plates (Costar) at a concentration of 5,000 cells/well. 24 hours later, cells were treated with either conjugate for 2 hours and further incubated 70 hours, or for octreotide competition experiments, treated with 100 μM octreotide for 30 min, and then treated with conjugate for 2 hours, and further incubated for 70 hours. Conjugate starting dose was 20 μM and three fold serial dilutions were done for a total of ten points. After 2 hours of treatment, cells were spun down, the drug containing media was removed, and fresh complete medium was added and used to resuspend the cells, which were spun again. After removal of the wash media, the cells were resuspended in complete medium, then transferred into white walled, flat bottomed 96 well plates. […] Proliferation was measured using CellTiter Glo reagent using the standard protocol (Promega) and a Glomax multi+detection system (Promega). Percent proliferation inhibition was calculated using the following formula: % inhibition=(control-treatment)/control*100. Control is defined as vehicle alone. IC50 curves were generated using the nonlinear regression analysis (four parameter) with GraphPad Prism 6.
Conjugates of the present invention were tested for their activity dependence on the somatostatin receptor. Active agent Z in the conjugate was selected from auristatin, carbazitaxel, DM1, doxorubicin, platinum, SN-38 and vinblastine. Active agent Z is connected to octreotide with various linkers. Proliferation IC50 values of the conjugates were measured. Proliferation IC50 values of the conjugates without octreotide competition were also measured. The ratio of IC50 with octreotide competition and IC50 without octreotide competition is an indicator of whether activity is at least partially dependent on bind to the somatostatin receptor.

Setting [1] is: Table 6, treated 2 hours, further incubated 70 hours, read-out: H524 IC50.
The mark [2] stands for this setting: read-out: H524 IC50 + 100 μM octreotide, Table 6, with octreotide competition.
Where [3] appears, read: read-out: H524 IC50+ 100 uM octreotide, Table 15, 100 μM octreotide for 30 min, then conjugate 2 hours, 70 hours incubation.
The mark [4] stands for this setting: Table 15, treated 2 hours, further incubated 70 hours, read-out: H524 IC50.

Like-named read-outs stand apart in the source and are kept apart here. Bridge positions count the residues as written; N and C are the ends. Square brackets hold non-standard residues; d marks the D form. Peptide text beside a SMILES is read from it. * marks the point of attachment. X1 = COc1cc2cc(c1Cl)N(C)C(=O)C[C@H](OC(=O)[C@H](C)N(C)C(=O)CCS*)[C@]1(C)O[C@H]1[C@H](C)[C@@H]1C[C@@](O)(NC(=O)O1)[C@H](OC)/C=C/C=C(\C)C2; Thr(ol) = C[C@@H](O)[C@H](N)CO

What is called IC50 is the concentration that gives 50% inhibition. `CC[C@H](C)[C@@H]([C@@H](CC(=O)N1CCC[C@H]1[C@H](OC)[C@@H](C)C(=O)N[C@H](C)[C@@H](O)c1ccccc1)OC)N(C)C(=O)[C@@H](NC(=O)[C@H](C(C)C)N(C)C(=O)OCc1ccc(NC(=O)[C@H](CCCNC(N)=O)NC(=O)[C@@H](NC(=O)CCCCCN2C(=O)CC(SCCC(=O)N[C@H](Cc3ccccc3)C(=O)N[C@H]3CSSC[C@@H](C(=O)N[C@H](CO)[C@@H](C)O)NC(=O)[C@H]([C@@H](C)O)NC(=O)[C@H](CCCCN)NC(=O)[C@@H](Cc4c[nH]c5ccccc45)NC(=O)[C@H](Cc4ccccc4)NC3=O)C2=O)C(C)C)cc1)C(C)C` (stereo partly shown) [Conjugate 5]: the IC50 worked out at 433 nM under setting [1] and 826 nM under setting [2].

For the molecule `COc1cc2cc(c1Cl)N(C)C(=O)C[C@H](OC(=O)[C@H](C)N(C)C(=O)CCSSCCC(=O)NCCOCCOCCOCCOCCOCCOCCOCCOCCC(=O)N[C@H](Cc1ccccc1)C(=O)N[C@H]1CSSC[C@@H](C(=O)N[C@H](CO)[C@@H](C)O)NC(=O)[C@H]([C@@H](C)O)NC(=O)[C@H](CCCCN)NC(=O)[C@@H](Cc3c[nH]c4ccccc34)NC(=O)[C@H](Cc3ccccc3)NC1=O)[C@]1(C)O[C@H]1[C@H](C)[C@@H]1C[C@@](O)(NC(=O)O1)[C@H](OC)/C=C/C=C(\C)C2` [Conjugate 6], the IC50 runs as follows: under setting [1], 234 nM; under setting [2], 629 nM; under setting [3], 629 nM.

As to `COc1cc2cc(c1Cl)N(C)C(=O)C[C@H](OC(=O)[C@H](C)N(C)C(=O)CCSSC[C@H](N)C(=O)N[C@@H](CCCCN)C(=O)N[C@@H](CCCCN)C(=O)N[C@@H](CCCCN)C(=O)N[C@@H](CCCCN)C(=O)N[C@H](Cc1ccccc1)C(=O)N[C@H]1CSSC[C@@H](C(=O)N[C@H](CO)[C@@H](C)O)NC(=O)[C@H]([C@@H](C)O)NC(=O)[C@H](CCCCN)NC(=O)[C@@H](Cc3c[nH]c4ccccc34)NC(=O)[C@H](Cc3ccccc3)NC1=O)[C@]1(C)O[C@H]1[C@H](C)[C@@H]1C[C@@](O)(NC(=O)O1)[C@H](OC)/C=C/C=C(\C)C2` [Conjugate 7] (H-C(X1)KKKK[dF]CF[dW]KTC[Thr(ol)]; disulfide 7-12), the IC50 amounted to 955 nM under setting [1], 1770 nM under setting [2] and 1770 nM under setting [3].

For the molecule `COc1cc2cc(c1Cl)N(C)C(=O)C[C@H](OC(=O)[C@H](C)N(C)C(=O)CCSC1CC(=O)N(CCCNC(=O)CC[C@H]3C(=O)N[C@@H](Cc4ccc(O)cc4)C(=O)N[C@H](Cc4c[nH]c5ccccc45)C(=O)N[C@@H](CCCCN)C(=O)N[C@@H]([C@@H](C)O)C(=O)N[C@@H](Cc4ccccc4)C(=O)N3C)C1=O)[C@]1(C)O[C@H]1[C@H](C)[C@@H]1C[C@@](O)(NC(=O)O1)[C@H](OC)/C=C/C=C(\C)C2` (stereo partly shown) [Conjugate 12], the IC50 runs as follows: under setting [4], 1680 nM; under setting [3], 2340 nM.

With `COc1cc2cc(c1Cl)N(C)C(=O)C[C@H](OC(=O)[C@H](C)N(C)C(=O)CCSSCCC(=O)N1CCN(C(=O)CC[C@H]3C(=O)N[C@@H](Cc4ccc(O)cc4)C(=O)N[C@H](Cc4c[nH]c5ccccc45)C(=O)N[C@@H](CCCCN)C(=O)N[C@@H]([C@@H](C)O)C(=O)N[C@@H](Cc4ccccc4)C(=O)N3C)CC1)[C@]1(C)O[C@H]1[C@H](C)[C@@H]1C[C@@](O)(NC(=O)O1)[C@H](OC)/C=C/C=C(\C)C2` [Conjugate 26], the half-inhibitory concentration (IC50) under setting [4] is 787 nM and the IC50 under setting [3] stood at 1160 nM.

For the molecule `COc1cc2cc(c1Cl)N(C)C(=O)C[C@H](OC(=O)[C@H](C)N(C)C(=O)CCSSC1CCN(C(=O)CC[C@H]3C(=O)N[C@@H](Cc4ccc(O)cc4)C(=O)N[C@H](Cc4c[nH]c5ccccc45)C(=O)N[C@@H](CCCCN)C(=O)N[C@@H]([C@@H](C)O)C(=O)N[C@@H](Cc4ccccc4)C(=O)N3C)CC1)[C@]1(C)O[C@H]1[C@H](C)[C@@H]1C[C@@](O)(NC(=O)O1)[C@H](OC)/C=C/C=C(\C)C2` [Conjugate 28], the IC50 was found to be 669 nM under setting [4] and 1000 nM under setting [3].

In the case of `COc1cc2cc(c1Cl)N(C)C(=O)C[C@H](OC(=O)[C@H](C)N(C)C(=O)CCSSCC(=O)NCCNC(=O)CC[C@H]1C(=O)N[C@@H](Cc3ccc(O)cc3)C(=O)N[C@H](Cc3c[nH]c4ccccc34)C(=O)N[C@@H](CCCCN)C(=O)N[C@@H]([C@@H](C)O)C(=O)N[C@@H](Cc3ccccc3)C(=O)N1C)[C@]1(C)O[C@H]1[C@H](C)[C@@H]1C[C@@](O)(NC(=O)O1)[C@H](OC)/C=C/C=C(\C)C2` [Conjugate 30], the IC50 under setting [4] came out at 470 nM and the IC50 under setting [3] is 2020 nM.

On to `COc1cc2cc(c1Cl)N(C)C(=O)C[C@H](OC(=O)[C@H](C)N(C)C(=O)CCSSCCNC(=O)[C@@H](NC(=O)[C@@H]1CSSC[C@H](NC(=O)[C@H](N)Cc3ccccc3)C(=O)N[C@@H](Cc3csc4ccccc34)C(=O)N[C@H](Cc3c[nH]c4ccccc34)C(=O)N[C@@H](CCCCN)C(=O)N[C@@H]([C@@H](C)O)C(=O)N1)[C@@H](C)O)[C@]1(C)O[C@H]1[C@H](C)[C@@H]1C[C@@](O)(NC(=O)O1)[C@H](OC)/C=C/C=C(\C)C2` [Conjugate 37], for which the concentration for half-maximal inhibition (IC50) is, setting by setting: under setting [4], 44 nM; under setting [3], 166 nM.

`COc1cc2cc(c1Cl)N(C)C(=O)C[C@H](OC(=O)[C@H](C)N(C)C(=O)CCSSCCC(=O)NCCNC(=O)[C@@H](NC(=O)[C@@H]1CSSC[C@H](NC(=O)[C@H](N)Cc3ccccc3)C(=O)N[C@@H](Cc3ccc(O)cc3)C(=O)N[C@H](Cc3c[nH]c4ccccc34)C(=O)N[C@@H](CCCCN)C(=O)N[C@@H]([C@@H](C)O)C(=O)N1)[C@@H](C)O)[C@]1(C)O[C@H]1[C@H](C)[C@@H]1C[C@@](O)(NC(=O)O1)[C@H](OC)/C=C/C=C(\C)C2` [Conjugate 43]: the IC50 by setting is: under setting [4], 1160 nM; under setting [3], 2050 nM.

On to `COc1cc2cc(c1Cl)N(C)C(=O)C[C@H](OC(=O)[C@H](C)N(C)C(=O)CCSSCCC(=O)NCCNC(=O)[C@H](Cc1c[nH]c3ccccc13)NC(=O)[C@@H]1CSSC[C@H](NC(=O)[C@H](N)Cc3ccccc3)C(=O)N[C@@H](Cc3ccc(O)cc3)C(=O)N[C@H](Cc3c[nH]c4ccccc34)C(=O)N[C@@H](CCCCN)C(=O)N[C@@H]([C@@H](C)O)C(=O)N1)[C@]1(C)O[C@H]1[C@H](C)[C@@H]1C[C@@](O)(NC(=O)O1)[C@H](OC)/C=C/C=C(\C)C2` [Conjugate 45], for which the IC50 under setting [4] is 345 nM and the IC50 under setting [3] was 481 nM.

In the case of `COc1cc2cc(c1Cl)N(C)C(=O)C[C@H](OC(=O)[C@H](C)N(C)C(=O)CCSSCCC(=O)NCCOCCOCCOCCNC(=O)[C@@H](NC(=O)[C@@H]1CSSC[C@H](NC(=O)[C@H](N)Cc3ccccc3)C(=O)N[C@@H](Cc3ccc(O)cc3)CN[C@H](Cc3c[nH]c4ccccc34)C(=O)N[C@@H](CCCCN)C(=O)N[C@@H]([C@@H](C)O)C(=O)N1)[C@@H](C)O)[C@]1(C)O[C@H]1[C@H](C)[C@@H]1C[C@@](O)(NC(=O)O1)[C@H](OC)/C=C/C=C(\C)C2` [Conjugate 47], the concentration for half-maximal inhibition (IC50) runs as follows: under setting [4], 2130 nM; under setting [3], 1270 nM.

For `COc1cc2cc(c1Cl)N(C)C(=O)C[C@H](OC(=O)[C@H](C)N(C)C(=O)CCSSCCNC(=O)[C@H](Cc1c[nH]c3ccccc13)NC(=O)[C@@H]1CSSC[C@H](NC(=O)[C@H](N)Cc3ccccc3)C(=O)N[C@@H](Cc3ccc(O)cc3)CN[C@H](Cc3c[nH]c4ccccc34)C(=O)N[C@@H](CCCCN)C(=O)N[C@@H]([C@@H](C)O)C(=O)N1)[C@]1(C)O[C@H]1[C@H](C)[C@@H]1C[C@@](O)(NC(=O)O1)[C@H](OC)/C=C/C=C(\C)C2` [Conjugate 49], the IC50 under setting [4] came to 69 nM and the IC50 under setting [3] worked out at 243 nM.

With `COc1cc2cc(c1Cl)N(C)C(=O)C[C@H](OC(=O)[C@H](C)N(C)C(=O)CCSSCCC(=O)NCCNC(=O)[C@@H](NC(=O)[C@@H]1CSSC[C@H](NC(=O)[C@H](N)Cc3c[nH]c4ccccc34)C(=O)N[C@@H](Cc3ccc(O)cc3)C(=O)N[C@H](Cc3c[nH]c4ccccc34)C(=O)N[C@@H](CCCCN)C(=O)N[C@@H]([C@@H](C)O)C(=O)N1)[C@@H](C)O)[C@]1(C)O[C@H]1[C@H](C)[C@@H]1C[C@@](O)(NC(=O)O1)[C@H](OC)/C=C/C=C(\C)C2` [Conjugate 51], the IC50 under setting [4] turned out to be 124 nM and the IC50 under setting [3] worked out at 238 nM.
